Assay [1] deals with Bacillus subtilis. In words: Antimicrobial activity against Bacillus subtilis by well diffusion method. In kind it is functional.
Assay [2] concerns Aspergillus sp. Kind of assay: Antimicrobial activity against Aspergillus sp. by poison food technique. The assay is classed as functional.
The subject of assay [3] is Staphylococcus aureus. Kind of assay: Antimicrobial activity against Staphylococcus aureus by well diffusion method. In kind it is functional.
In assay [4] the test system is Salmonella typhi. Kind of assay: Antimicrobial activity against Salmonella typhi by well diffusion method. The assay is classed as functional, Salmonella enterica subsp. enterica serovar Typhi. The conditions noted are these: Salmonella enterica.
The subject of assay [5] is Streptococcus pneumoniae. In words: Antimicrobial activity against Streptococcus pneumoniae by well diffusion method. The assay is classed as functional.
Assay [6] deals with Candida albicans. Kind of assay: Antimicrobial activity against Candida albicans by poison food technique. The assay is classed as functional.
For assay [7], the system named is Escherichia coli. Kind of assay: Antimicrobial activity against Escherichia coli by well diffusion method. The assay is classed as functional.
Assay [8] has as its system Trichoderma. Kind of assay: Antimicrobial activity against Trichoderma sp. by poison food technique. In kind it is functional.
Assay [9] concerns Shigella sp. In words: Antimicrobial activity against Shigella sp. by well diffusion method. In kind it is functional.

The values below come from ChEMBL document CHEMBL1287775, “Stereoselective synthesis of hexahydro-3-methyl-1-arylchromeno[3,4-b]pyrrole and its annulated heterocycles as potent antimicrobial agents for human pathogens” (2010).

Converted amounts (≈) assume the structure as drawn.

As for `O=C(c1ccc(Cl)cc1)[C@@H]1[C@H]2c3ccccc3OC[C@H]2N2Cc3ccccc3C[C@H]12`, the MIC came to 5 µg/mL (≈ 12 µM) in assay [1]; 25 µg/mL (≈ 60.1 µM) in [2]; 5 µg/mL (≈ 12 µM) in assay [3]; 15 µg/mL (≈ 36.1 µM) in [4]; 15 µg/mL (≈ 36.1 µM) in assay [5]; 20 µg/mL (≈ 48.1 µM) in assay [6]. For the same molecule, the MIC came out at 10 µg/mL (≈ 24 µM) in assay [7], 45 µg/mL (≈ 108 µM) in assay [8] and 20 µg/mL (≈ 48.1 µM) in [9].
Take `CN1C[C@@]2(CCc3ccccc3C2=O)[C@H]2c3ccccc3OC[C@H]21`: the MIC in [1] stood at 35 µg/mL (≈ 110 µM); in assay [2], 85 µg/mL (≈ 266 µM); in [3] it was 20 µg/mL (≈ 62.6 µM); in assay [4] it was 55 µg/mL (≈ 172 µM); in assay [5], 60 µg/mL (≈ 188 µM); in assay [6], 75 µg/mL (≈ 235 µM). The MIC came to 25 µg/mL (≈ 78.3 µM) in assay [7], 105 µg/mL (≈ 329 µM) in assay [8] and 45 µg/mL (≈ 141 µM) in [9].
For the molecule `CN1C[C@H](C(=O)c2ccc(Cl)cc2)[C@H]2c3ccccc3OC[C@H]21`, the MIC in assay [1] amounted to 15 µg/mL (≈ 45.8 µM); in assay [2], 35 µg/mL (≈ 107 µM); in [3], 20 µg/mL (≈ 61 µM); in assay [4], 10 µg/mL (≈ 30.5 µM); in [5] it was 25 µg/mL (≈ 76.3 µM); in assay [6] it was 45 µg/mL (≈ 137 µM). Moreover, the MIC in assay [7] was 10 µg/mL (≈ 30.5 µM); in assay [8] it was 40 µg/mL (≈ 122 µM); in [9], 25 µg/mL (≈ 76.3 µM).
In the case of `O=C1c2ccccc2CC[C@]12[C@H]1c3ccccc3OC[C@H]1N1CSC[C@@H]12`, the MIC turned out to be 55 µg/mL (≈ 151 µM) in assay [1]; 75 µg/mL (≈ 206 µM) in assay [2]; 45 µg/mL (≈ 124 µM) in assay [3]; 60 µg/mL (≈ 165 µM) in assay [4]; 40 µg/mL (≈ 110 µM) in assay [5]; 90 µg/mL (≈ 248 µM) in assay [6]. Further, the MIC is 65 µg/mL (≈ 179 µM) in assay [7], 105 µg/mL (≈ 289 µM) in [8] and 70 µg/mL (≈ 193 µM) in assay [9].
Turning to `O=C(c1ccc(Cl)cc1)[C@@H]1[C@H]2c3ccccc3OC[C@H]2N2CCC[C@H]12`, the MIC in assay [1] was 5 µg/mL (≈ 14.1 µM); in assay [2], 25 µg/mL (≈ 70.7 µM); in assay [3] it was 5 µg/mL (≈ 14.1 µM); in [4], 15 µg/mL (≈ 42.4 µM); in assay [5] it was 10 µg/mL (≈ 28.3 µM); in assay [6] it was 25 µg/mL (≈ 70.7 µM). Further, the MIC is 10 µg/mL (≈ 28.3 µM) in [7], 30 µg/mL (≈ 84.8 µM) in assay [8] and 5 µg/mL (≈ 14.1 µM) in assay [9].
For the molecule `O=C1c2ccccc2CC[C@]12[C@H]1c3ccccc3OC[C@H]1N1Cc3ccccc3C[C@@H]12`, the MIC worked out at 5 µg/mL (≈ 12.3 µM) in [1]; 25 µg/mL (≈ 61.3 µM) in assay [2]; 5 µg/mL (≈ 12.3 µM) in assay [3]; 5 µg/mL (≈ 12.3 µM) in assay [4]; 10 µg/mL (≈ 24.5 µM) in [5]; 35 µg/mL (≈ 85.9 µM) in [6]. Also, the MIC in assay [7] was 5 µg/mL (≈ 12.3 µM); in assay [8], 50 µg/mL (≈ 123 µM); in assay [9] it was 5 µg/mL (≈ 12.3 µM).
On to `O=C(c1ccc(Cl)cc1)[C@@H]1[C@H]2c3ccccc3OC[C@H]2N2CSC[C@H]12`, for which the minimal inhibitory concentration (MIC) was found to be 20 µg/mL (≈ 53.8 µM) in assay [1]; 70 µg/mL (≈ 188 µM) in assay [2]; 25 µg/mL (≈ 67.2 µM) in assay [3]; 25 µg/mL (≈ 67.2 µM) in assay [4]; 30 µg/mL (≈ 80.7 µM) in [5]; 65 µg/mL (≈ 175 µM) in assay [6]. For the same molecule, the MIC in [7] was found to be 15 µg/mL (≈ 40.3 µM); in [8], 75 µg/mL (≈ 202 µM); in assay [9], 30 µg/mL (≈ 80.7 µM).
In the case of `O=C1c2ccccc2CC[C@]12[C@H]1c3ccccc3OC[C@H]1N1CCC[C@@H]12`, the minimum inhibitory concentration (MIC) in assay [1] was found to be 70 µg/mL (≈ 203 µM); in [2] it was 75 µg/mL (≈ 217 µM); in assay [3] it was 65 µg/mL (≈ 188 µM); in assay [4], 60 µg/mL (≈ 174 µM); in assay [5] it was 55 µg/mL (≈ 159 µM); in [6] it was 95 µg/mL (≈ 275 µM). Moreover, the MIC in assay [7] was determined as 50 µg/mL (≈ 145 µM); in assay [8] it was 110 µg/mL (≈ 318 µM); in [9], 75 µg/mL (≈ 217 µM).
For `COC(=O)Nc1nc2ccccc2[nH]1` [CARBENDAZIM], the minimal inhibitory concentration (MIC) came to 15 µg/mL (≈ 78.5 µM) in [2], 10 µg/mL (≈ 52.3 µM) in assay [6] and 15 µg/mL (≈ 78.5 µM) in assay [8].
For the molecule `CN(C)[C@@H]1C(O)=C(C(N)=O)C(=O)[C@@]2(O)C(O)=C3C(=O)c4c(O)cccc4[C@@](C)(O)[C@H]3C[C@@H]12` [TETRACYCLINE], the MIC in assay [1] was 10 µg/mL (≈ 22.5 µM); in assay [3], 15 µg/mL (≈ 33.8 µM); in assay [4], 25 µg/mL (≈ 56.3 µM); in assay [5], 20 µg/mL (≈ 45 µM); in assay [7], 10 µg/mL (≈ 22.5 µM); in assay [9] it was 15 µg/mL (≈ 33.8 µM).
